# Assays:
# [1] = Solubility studies of tadalafil in vegetable oils; type: physicochemical; details: such as olive oil, sunflower oil, safflower oil, soybean oil
# Text: Suspension formulations of tadalafil were initially produced in soybean oil, and in a mixture of hydrogenated and partially-hydrogenated soybean oil in order to produce a stable suspension.
# [2] = cited from earlier work
smiles,measurement,setting,value
"CN1CC(=O)N2[C@H](c3ccc4c(c3)OCO4)c3[nH]c4ccccc4c3C[C@@H]2C1=O [Tadalafil, (6R,12aR)-6-(Benzo[d][1,3]dioxol-5-yl)-2-methyl-2,3,12,12a]",solubility in vegetable oils,[1],practically insoluble
same,solubility in ethanol and other organic solvents,[2]; ethanol and other organic solvents,very slightly soluble
same,solubility in water,[2]; water,practically insoluble

# From EP3510997B1, “SOFT GELATIN CAPSULES COMPRISING A SUSPENSION OF TADALAFIL” (Gap S.A., priority 2018, dated 2019)
